Laboratory results from patent US20100081661A1, “HEME OXYGENASE INHIBITORS, SCREENING METHODS FOR HEME OXYGENASE INHIBITORS AND METHODS OF USE OF HEME OXYGENASE INHIBITORS FOR ANTIMICROBIAL THERAPY” (UNIVERSITY OF MARYLAND, BALTIMORE, priority 2006, published 2010).
Read-outs that look alike come from different tables or passages of the source.

Tests used:
pa-HO = pa-HO (Pseudomonas aeruginosa, UniProt O69002); format: binding; settings: for NMR sat. transfer: Table 2, paHO; for NMR pa-HO: Table 3A; on NMR pa-HO: key: Shows binding by NMR method = +; Ambig = ambiguous
P. aeruginosa = assay: MIC50 for P. aeruginosa; format: cell-based, Pseudomonas aeruginosa; settings: for MIC / minimum inhibition conc: Table 2; for MIC: read-out: minimum inhibition conc
nm-HO = nm-HO (Neisseria meningitidis, UniProt Q9AH50); format: cell-based; settings: Table 2; colour of cell pellet (white = no biliverdin, green = biliverdin) or toxicity to cells
[1] = Pseudomonas aeruginosa, Table 3A, read-out: MIC 50
[2] = Pseudomonas aeruginosa, Table 3B, P. aeruginosa, read-out: MIC 50

Sequence of pa-HO (O69002 1-198): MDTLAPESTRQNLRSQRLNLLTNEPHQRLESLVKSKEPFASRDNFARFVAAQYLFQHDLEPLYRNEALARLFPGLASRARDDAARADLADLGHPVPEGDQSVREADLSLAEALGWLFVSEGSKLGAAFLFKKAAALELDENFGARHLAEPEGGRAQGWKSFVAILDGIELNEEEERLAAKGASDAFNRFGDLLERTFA
Sequence of nm-HO (Q9AH50 1-209): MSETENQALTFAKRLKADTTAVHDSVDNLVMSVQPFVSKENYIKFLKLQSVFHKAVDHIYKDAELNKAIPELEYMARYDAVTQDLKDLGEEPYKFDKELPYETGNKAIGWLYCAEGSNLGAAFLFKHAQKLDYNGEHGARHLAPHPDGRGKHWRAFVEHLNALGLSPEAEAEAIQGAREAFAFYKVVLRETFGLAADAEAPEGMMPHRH

SMILES	NMR sat. transfer (pa-HO)	further results
O=C1OC(c2ccccc2)=N/C1=C\Nc1cccc([N+](=O)[O-])c1 [Compound 147]	Alias: CB-26 fluorescence binding: nd minimum inhibition conc: nd NMR sat. transfer: does not bind paHO	–
Cc1ccc(NC(=O)c2cnccn2)cc1Cl [Compound 38]	Alias: CB-24 fluorescence binding: nd minimum inhibition conc: nd NMR sat. transfer: does not bind paHO	–
C=CCn1c(S)cc2sc3c(c2c1=O)CCN(C)C3 [Compound 128]	Alias: Spec-4 fluorescence binding: nd minimum inhibition conc: nd NMR sat. transfer: do not bind paHO	–
O=C(Oc1ccc(OC(=O)c2ccco2)cc1)c1ccco1 [Compound 47]	Alias: CB-3 fluorescence binding: nd minimum inhibition conc: nd NMR sat. transfer: do not bind paHO	–
O=C(O)CCn1ncc2ccccc21 [Compound 51]	Alias: CD-5 fluorescence binding: nd minimum inhibition conc: nd NMR sat. transfer: do not bind paHO	–
O=C(O)c1ccc2c(c1)C(=O)N(CCO)C2=O [Compound 151]	Alias: CB-8 fluorescence binding: nd minimum inhibition conc: nd NMR sat. transfer: binds paHO	–
COc1cc(/C=N/Cc2ccco2)ccc1O [Compound 104]	Alias: CD-13 fluorescence binding: nd minimum inhibition conc: nd NMR sat. transfer: do not bind paHO	–
NC(=O)c1ccc[n+](-c2ccccc2)c1 [Compound 91]	Alias: Spec-10 fluorescence binding: nd minimum inhibition conc: nd NMR sat. transfer: do not bind paHO	–
N#CCc1ccc(NC2=NS(=O)(=O)c3ccccc32)cc1 [Compound 56]	Alias: CD-16 fluorescence binding: nd minimum inhibition conc: nd NMR sat. transfer: do not bind paHO	–
COc1ccc(C(=O)COC(=O)/C=C/c2ccccc2)cc1 [Compound 74]	Alias: CB-1 fluorescence binding: nd minimum inhibition conc: nd NMR sat. transfer: do not bind paHO	–
O=C(O)c1ccc2c(c1)-c1nc3ccccc3n1C2=O [Compound 57]	Alias: CD-4 fluorescence binding: nd minimum inhibition conc: nd NMR sat. transfer: do not bind paHO	–
NC(=O)NC(=O)C[n+]1ccc(C(N)=O)cc1 [Compound 34]	Alias: CD-3 fluorescence binding: nd minimum inhibition conc: nd NMR sat. transfer: do not bind paHO	–
NCC(O)(c1ccc(Cl)cc1)c1ccc(Cl)cc1 [Compound 131]	yes, bind paHO	MIC (P. aeruginosa; Pseudomonas aeruginosa): > 250 µg/mL; MIC50 (P. aeruginosa; [1]): > 250 µg/mL; MIC50 (P. aeruginosa; Table 3B, P. aeruginosa): >250 µg/mL; NMR pa-HO (pa-HO): +
O=C(O)c1ccc2c(c1)C(=O)N(c1ccc(Cl)cc1)C2=O [Compound 77]	Alias: CB-16 fluorescence binding: nd minimum inhibition conc: nd NMR sat. transfer: binds paHO	–
O=C(O)CSc1ncnc2ccccc12 [Compound 36]	binds paHO	minimum inhibition conc (P. aeruginosa): no antibacterial activity; MIC 50 (ug/ml) (P. aeruginosa; Table 3A): no antibact activity; NMR pa-HO (pa-HO): +
O=C(CNC(=O)c1cccnc1)N/N=C/c1ccccn1 [Compound 9]	Alias: CD-21 fluorescence binding: nd minimum inhibition conc: nd NMR sat. transfer: do not bind paHO	–
Nc1nonc1-c1noc(-c2cccnc2O)n1 [Compound 113]	Alias: CD-17 fluorescence binding: nd minimum inhibition conc: nd NMR sat. transfer: do not bind paHO	–
NCCNS(=O)(=O)c1cccc(C(=O)O)c1 [Compound 18]	Alias: Spec-7 fluorescence binding: nd minimum inhibition conc: nd NMR sat. transfer: do not bind paHO	–
Cc1n[nH]c(Nc2ccccc2F)c1[N+](=O)[O-] [Compound 20]	Alias: CD-6 fluorescence binding: nd minimum inhibition conc: nd NMR sat. transfer: do not bind paHO	–
O=C(O)CN1C(=O)c2ccccc2C1=O [Compound 5]	Alias: CB-4 fluorescence binding: nd minimum inhibition conc: nd NMR sat. transfer: binds paHO	–
O=CNc1nonc1NNc1ccccc1 [Compound 144]	Alias: CB-15 fluorescence binding: nd minimum inhibition conc: nd NMR sat. transfer: tested, ambiguous	–
c1cncc(CNCc2cccnc2)c1 [Compound 64]	Alias: Spec-12 fluorescence binding: nd minimum inhibition conc: nd NMR sat. transfer: do not bind paHO	–
CCc1ccc2[nH]c3nc(N/N=C/c4ccc(O)cc4)nnc3c2c1 [Compound 139]	Alias: CB-27 fluorescence binding: nd minimum inhibition conc: nd NMR sat. transfer: does not bind paHO	–
C(=N\Nc1nc(-c2cccnc2)cs1)/c1cccnc1 [Compound 3]	Alias: CB-28 fluorescence binding: nd minimum inhibition conc: nd NMR sat. transfer: does not bind paHO	–
O=C(O)Cn1c(=O)c2cc3c(=O)n(CC(=O)O)c(=O)c3cc2c1=O [Compound 4]	Alias: CB-2 fluorescence binding: nd minimum binding conc: nd NMR sat. transfer: do not bind paHO	–
CCN1CCN(CCN)CC1 [Compound 90]	Alias: CD-19 fluorescence binding: nd minimum inhibition conc: nd NMR sat. transfer: do not bind paHO	–

SMILES	NMR sat. transfer (pa-HO)	further results
Cc1cc(-c2ccc(F)cc2)nc2cc(C(=O)O)nn12 [Compound 85]	yes, bind paHO	MIC50 (P. aeruginosa; [2]): > 1000 µg/mL; minimum inhibition conc (P. aeruginosa): no antibacterial activity; MIC 50 (ug/ml) (P. aeruginosa; Table 3A): no antibact activity; NMR pa-HO (pa-HO): +
Cn1c(=O)c(CC(=O)C(=O)O)nc2ccccc21 [Compound 152]	yes, bind paHO	MIC50 (P. aeruginosa; [2]): > 1000 µg/mL; minimum inhibition conc (P. aeruginosa): no antibacterial activity; MIC 50 (ug/ml) (P. aeruginosa; Table 3A): no antibact activity; NMR pa-HO (pa-HO): +
CC(C)c1ccc(CN2CCN(CCO)CC2)cc1 [Compound 132]	Alias: CB-13 fluorescence binding: nd minimum inhibition conc: nd NMR sat. transfer: tested, ambiguous	–
Cc1ccccc1C(=O)Nc1cc(C(=O)O)cc(C(=O)O)c1 [Compound 6]	Alias: CB-17 fluorescence binding: nd minimum inhibition conc: nd NMR sat. transfer: binds paHO	–
Cc1cc(C(=O)O)nn1-c1ccccc1 [Compound 115]	yes, bind paHO	MIC50 (P. aeruginosa; [2]): > 1000 µg/mL; minimum inhibition conc (P. aeruginosa): no antibacterial activity; MIC 50 (ug/ml) (P. aeruginosa; Table 3A): no antibact activity; NMR pa-HO (pa-HO): +
O=C(O)c1c[nH]c2c(ccc3ccccc32)c1=O [Compound 52]	Alias: Spec-2 fluorescence binding: nd minimum inhibition conc: nd NMR sat. transfer: do not bind paHO	–
C=CCNC(=O)C(=O)Nc1ccc(C(C)C)cc1 [Compound 124]	Alias: CB-30 fluorescence binding: nd minimum inhibition conc: nd NMR sat. transfer: tested, ambiguous	–
O=C(N/N=C/c1ccc(O)cc1O)c1cccnc1 [Compound 11]	Alias: CD-20 fluorescence binding: nd minimum inhibition conc: nd NMR sat. transfer: do not bind paHO	–
O=C(O)c1cc(-c2cccnc2)nc2ccccc12 [Compound 62]	Alias: CB-23 fluorescence binding: nd minimum inhibition conc: nd NMR sat. transfer: does not bind paHO	–
CN1CCN(CCCn2cnc3c2c(=O)n(C)c(=O)n3C)CC1 [Compound 145]	Alias: CB-14 fluorescence binding: nd minimum inhibition conc: nd NMR sat. transfer: tested, ambiguous	–
Nc1nnnn1/N=C/c1cc2c(cc1[N+](=O)[O-])OCO2 [Compound 143]	Alias: CB-19 fluorescence binding: nd minimum inhibition conc: nd NMR sat. transfer: binds paHO	–
O=C(O)CCC(=O)Nc1ccc(Oc2ccccc2)cc1 [Compound 48]	do not bind paHO	E. coli assay (nm-HO): white pellet
CC(N)c1ccc2ccccc2c1 (stereo not shown) [Compound 103]	yes, bind paHO	MIC (P. aeruginosa; Pseudomonas aeruginosa): > 250 µg/mL; MIC50 (P. aeruginosa; [1]): > 250 µg/mL; MIC50 (P. aeruginosa; Table 3B, P. aeruginosa): >250 µg/mL; NMR pa-HO (pa-HO): +
CN(C)CCN(C)Cc1cccc2ccccc12 [Compound 98]	Alias: CB-12 fluorescence binding: nd minimum inhibition conc: nd NMR sat. transfer: binds paHO	–
Cc1nc(NCCCC(=O)O)c2ccccc2n1 [Compound 71]	Alias: Spec-6 fluorescence binding: nd minimum inhibition conc: nd NMR sat. transfer: do not bind paHO	–
O=C(CNc1ccc2ccccc2c1)N/N=C/c1ccccn1 [Compound 10]	Alias: CD-8 fluorescence binding: nd minimum inhibition conc: nd NMR sat. transfer: do not bind paHO	–
Cc1cccc(NC(=O)c2ccc(C(=O)Nc3cccc(C)n3)cc2)n1 [Compound 39]	Alias: CB-20 fluorescence binding: nd minimum inhibition conc: nd NMR sat. transfer: tested, ambiguous	–
Cc1ccc(CN2CCN(Cc3ccccc3)CC2)cc1 [Compound 80]	Alias: CB-10 fluorescence binding: nd minimum inhibition conc: nd NMR sat. transfer: binds paHO	–
O=[N+]([O-])c1cccc(CN2CCNCC2)c1 [Compound 83]	yes, bind paHO	minimum inhibition conc (P. aeruginosa): no antibacterial activity; MIC 50 (ug/ml) (P. aeruginosa; Table 3A): no antibact activity; NMR pa-HO (pa-HO): +
O=C(NCc1ccco1)c1cc(C(=O)NCc2ccco2)cc([N+](=O)[O-])c1 [Compound 40]	Alias: CB-25 fluorescence binding: nd minimum inhibition conc: nd NMR sat. transfer: does not bind paHO	–
CC(=O)Oc1ccc(-c2cccc(C(=O)O)c2)cc1 [Compound 61]	yes, bind to paHO	minimum inhibition conc (P. aeruginosa): no antibacterial activity; MIC 50 (ug/ml) (P. aeruginosa; Table 3A): no antibact activity; NMR pa-HO (pa-HO): +
NCC(=O)N(O)Cc1ccccc1 [Compound 127]	yes, bind paHO	MIC (P. aeruginosa; Pseudomonas aeruginosa): > 1000 µg/mL; MIC50 (P. aeruginosa; [1]): > 1000 µg/mL; MIC50 (P. aeruginosa; Table 3B, P. aeruginosa): >1000 µg/mL; NMR pa-HO (pa-HO): +
N#Cc1ncc(-c2ccccc2)nc1C#N [Compound 120]	Alias: Spec-15 fluorescence binding: nd minimum inhibition conc: nd NMR sat. transfer: do not bind paHO	–
Cn1c(=N)n(CC(=O)O)c2ccccc21 [Compound 153]	Alias: CD-9 fluorescence binding: nd minimum inhibition conc: nd NMR sat. transfer: do not bind paHO	–
Oc1ccccc1/C=N/Nc1nnn[nH]1 [Compound 140]	Alias: CB-11 fluorescence binding: nd minimum inhibition conc: nd NMR sat. transfer: binds paHO	–
